{
  "source": "patent US10227344B2",
  "about": "“CK2 inhibitors, compositions and methods thereof” (Polaris Pharmaceuticals, Inc., priority 2016, dated 2019)",
  "format_in_all_cases": "cell-based",
  "key": {"MCF7": {"test_system": "MCF7", "assay": "Cancer cell panel, cell viability (resazurin): Breast, MCF7", "details": "Homo sapiens, 72 hours, single agent, read-out: Example 3 IC50", "procedure": "(§1) Cells were plated in 96-well plates and treated for 72 hours with a serially diluted CK2 inhibitor or anti-cancer drug or their combination. The suspension cell lines were treated right after plating, while the adherent cells were allowed to attach overnight prior to the start of the treatment.\n(§2) Cell viability was determined by adding resazurin to cell cultures and measuring fluorescence with a plate reader. Relative cell viability was calculated by dividing the cell viability signal from a test sample by that of a non-treated control. […] Bliss Independence and Highest Single Agent models were used to determine if there is synergy, additivity or antagonism between the CK2 inhibitor and an anti-cancer drug."}, "A549": {"test_system": "A549", "assay": "Cancer cell panel, cell viability (resazurin): NSCLC, A549", "details": "Homo sapiens, 72 hours, single agent, read-out: Example 3 IC50", "procedure": "as §1, §2"}, "WM-115": {"test_system": "WM-115", "assay": "Cancer cell panel, cell viability (resazurin): Melanoma, WM-115", "details": "Homo sapiens; WM-115 (Melanoma), 72 hours, single agent; read-out: Example 3 IC50"}, "H23": {"test_system": "H23", "assay": "Cancer cell panel, cell viability (resazurin): NSCLC, H23", "details": "Homo sapiens, NCI-H23, 72 hours, single agent, read-out: Example 3 IC50"}, "DLD-1": {"test_system": "DLD-1", "assay": "Cancer cell panel, cell viability (resazurin): Colon, DLD-1", "details": "Homo sapiens; DLD-1 (Colon), 72 hours, single agent; read-out: Example 3 IC50"}, "SK-MEL-24": {"test_system": "SK-MEL-24", "assay": "Cancer cell panel, cell viability (resazurin): Melanoma, SK-MEL-24", "details": "Homo sapiens; SK-MEL-24 (Melanoma), 72 hours, single agent; read-out: Example 3 IC50"}, "SKOV-3": {"test_system": "SKOV-3", "assay": "Cancer cell panel, cell viability (resazurin): Ovarian, SKOV-3", "details": "Homo sapiens, SK-OV-3; SKOV-3 (Ovarian), 72 hours, single agent; read-out: Example 3 IC50"}, "NAMALWA": {"test_system": "NAMALWA", "assay": "Cancer cell panel, cell viability (resazurin): Burkitt's Lymphoma, NAMALWA", "details": "72 hours, single agent, read-out: Example 3 IC50", "procedure": "as §1, §2"}, "BT-474": {"test_system": "BT-474", "assay": "Cancer cell panel, cell viability (resazurin): Breast, BT-474", "details": "Homo sapiens; BT-474 (Breast), 72 hours, single agent; read-out: Example 3 IC50", "procedure": "as §1, §2"}, "H2122": {"test_system": "H2122", "assay": "Cancer cell panel, cell viability (resazurin): NSCLC, H2122", "details": "Homo sapiens, NCI-H2122, 72 hours, single agent, read-out: Example 3 IC50"}, "H1975": {"test_system": "H1975", "assay": "Cancer cell panel, cell viability (resazurin): NSCLC, H1975", "details": "Homo sapiens, NCI-H1975, 72 hours, single agent, read-out: Example 3 IC50", "procedure": "as §1, §2"}, "ACHN": {"test_system": "ACHN", "assay": "Cancer cell panel, cell viability (resazurin): Renal, ACHN", "details": "Homo sapiens, 72 hours, single agent, read-out: Example 3 IC50"}, "A375": {"test_system": "A375", "assay": "Cancer cell panel, cell viability (resazurin): Melanoma, A375", "details": "Homo sapiens, A-375, 72 hours, single agent, read-out: Example 3 IC50"}, "MDA-MB-453": {"test_system": "MDA-MB-453", "assay": "Cancer cell panel, cell viability (resazurin): Breast, MDA-MB-453", "details": "Homo sapiens; MDA-MB-453 (Breast), 72 hours, single agent; read-out: Example 3 IC50"}, "Mia-Paca-2": {"test_system": "Mia-Paca-2", "assay": "Cancer cell panel, cell viability (resazurin): Pancreatic, Mia-Paca-2", "details": "Homo sapiens; Mia-Paca-2 (Pancreatic), 72 hours, single agent; read-out: Example 3 IC50"}, "SK-MEL-3": {"test_system": "SK-MEL-3", "assay": "Cancer cell panel, cell viability (resazurin): Melanoma, SK-MEL-3", "details": "Homo sapiens, SK-MEL3; SK-MEL-3 (Melanoma), 72 hours, single agent; read-out: Example 3 IC50", "procedure": "as §1, §2"}, "Caki-1": {"test_system": "Caki-1", "assay": "Cancer cell panel, cell viability (resazurin): Renal, Caki-1", "details": "Homo sapiens; Caki-1 (Renal), 72 hours, single agent; read-out: Example 3 IC50", "procedure": "as §1, §2"}, "OVCAR-3": {"test_system": "OVCAR-3", "assay": "Cancer cell panel, cell viability (resazurin): Ovarian, OVCAR-3", "details": "Homo sapiens; OVCAR-3 (Ovarian), 72 hours, single agent; read-out: Example 3 IC50", "procedure": "as §1, §2"}, "LnCap": {"test_system": "LnCap", "assay": "Cancer cell panel, cell viability (resazurin): Prostate, LnCap", "details": "Homo sapiens, 72 hours, single agent, read-out: Example 3 IC50"}, "LoVo": {"test_system": "LoVo", "assay": "Cancer cell panel, cell viability (resazurin): Colon, LoVo", "details": "Homo sapiens, 72 hours, single agent, read-out: Example 3 IC50"}, "U266": {"test_system": "U266", "assay": "Cancer cell panel, cell viability (resazurin): multiple myeloma, U266", "details": "Homo sapiens, U-266, 72 hours, single agent, read-out: Example 3 IC50"}, "U87MG": {"test_system": "U87MG", "assay": "Cancer cell panel, cell viability (resazurin): Glioblastoma, U87MG", "details": "Homo sapiens, U-87 MG, 72 hours, single agent, read-out: Example 3 IC50", "procedure": "as §1, §2"}, "BT-20": {"test_system": "BT-20", "assay": "Cancer cell panel, cell viability (resazurin): Breast, BT-20", "details": "Homo sapiens; BT-20 (Breast), 72 hours, single agent; read-out: Example 3 IC50"}, "RPMI8226": {"test_system": "RPMI8226", "assay": "Cancer cell panel, cell viability (resazurin): multiple myeloma, RPMI8226", "details": "Homo sapiens, RPMI-8226, 72 hours, single agent, read-out: Example 3 IC50", "procedure": "as §1, §2"}, "MOLT4": {"test_system": "MOLT4", "assay": "Cancer cell panel, cell viability (resazurin): Leukemia, MOLT4", "details": "Homo sapiens, MOLT-4, 72 hours, single agent, read-out: Example 3 IC50"}, "Ramos": {"test_system": "Ramos", "assay": "Cancer cell panel, cell viability (resazurin): Burkitt's Lymphoma, Ramos", "details": "Homo sapiens, 72 hours, single agent, read-out: Example 3 IC50"}, "ZR-75-1": {"test_system": "ZR-75-1", "assay": "Cancer cell panel, cell viability (resazurin): Breast, ZR-75-1", "details": "Homo sapiens; ZR-75-1 (Breast), 72 hours, single agent; read-out: Example 3 IC50", "procedure": "as §1, §2"}, "MeWO": {"test_system": "MeWO", "assay": "Cancer cell panel, cell viability (resazurin): Melanoma, MeWO", "details": "Homo sapiens, 72 hours, single agent, read-out: Example 3 IC50", "procedure": "as §1, §2"}, "MDA-MB-157": {"test_system": "MDA-MB-157", "assay": "Cancer cell panel, cell viability (resazurin): Breast, MDA-MB-157", "details": "Homo sapiens; MDA-MB-157 (Breast), 72 hours, single agent; read-out: Example 3 IC50"}, "SkBr-3": {"test_system": "SkBr-3", "assay": "Cancer cell panel, cell viability (resazurin): Breast, SkBr-3", "details": "Homo sapiens, SK-BR-3; SkBr-3 (Breast), 72 hours, single agent; read-out: Example 3 IC50"}, "BxPC3": {"test_system": "BxPC3", "assay": "Cancer cell panel, cell viability (resazurin): Pancreatic, BxPC3", "details": "Homo sapiens, BXPC-3, 72 hours, single agent, read-out: Example 3 IC50", "procedure": "as §1, §2"}},
  "note": "pIC50: −log10 of the molar value.",
  "data": [
    {"molecule": "C[S@+]([O-])Cc1cc(Nc2cc(NC3CC3)n3ncc(C#N)c3n2)ccc1Cl", "note": "[Example 3, (S)(+)-5-((4-Chloro-3-((methylsulfinyl)methyl)phenyl)amino)-7-(cyclopropylamino)pyrazolo[1,5-a]pyrimidine-3-carbonitrile]", "values": [
      {"measurement": "pIC50", "setting": "MCF7", "result": 5.74},
      {"measurement": "pIC50", "setting": "A549", "result": 5.78},
      {"measurement": "pIC50", "setting": "WM-115", "result": 6.54},
      {"measurement": "pIC50", "setting": "H23", "result": 6.24},
      {"measurement": "pIC50", "setting": "DLD-1", "result": 6.24},
      {"measurement": "pIC50", "setting": "SK-MEL-24", "result": 5.85},
      {"measurement": "pIC50", "setting": "SKOV-3", "result": 5.86},
      {"measurement": "pIC50", "setting": "NAMALWA", "result": 6.69},
      {"measurement": "pIC50", "setting": "BT-474", "result": 6.47},
      {"measurement": "pIC50", "setting": "H2122", "result": 6.64},
      {"measurement": "pIC50", "setting": "H1975", "result": 6.41},
      {"measurement": "pIC50", "setting": "ACHN", "result": 6.39},
      {"measurement": "pIC50", "setting": "A375", "result": 6.66},
      {"measurement": "pIC50", "setting": "MDA-MB-453", "result": 6.83},
      {"measurement": "pIC50", "setting": "Mia-Paca-2", "result": 6.60},
      {"measurement": "pIC50", "setting": "SK-MEL-3", "result": 6.37},
      {"measurement": "pIC50", "setting": "Caki-1", "result": 6.77},
      {"measurement": "pIC50", "setting": "OVCAR-3", "result": 7.38},
      {"measurement": "pIC50", "setting": "LnCap", "result": 6.38},
      {"measurement": "pIC50", "setting": "LoVo", "result": 6.77},
      {"measurement": "pIC50", "setting": "U266", "result": "< 5.00"},
      {"measurement": "pIC50", "setting": "U87MG", "result": 5.95},
      {"measurement": "pIC50", "setting": "BT-20", "result": 7.01},
      {"measurement": "pIC50", "setting": "RPMI8226", "result": 6.63},
      {"measurement": "pIC50", "setting": "MOLT4", "result": 6.38},
      {"measurement": "pIC50", "setting": "Ramos", "result": 6.51},
      {"measurement": "pIC50", "setting": "ZR-75-1", "result": 6.49},
      {"measurement": "pIC50", "setting": "MeWO", "result": 6.58},
      {"measurement": "pIC50", "setting": "MDA-MB-157", "result": 6.35},
      {"measurement": "pIC50", "setting": "SkBr-3", "result": 6.64},
      {"measurement": "pIC50", "setting": "BxPC3", "result": 5.44}
    ]}
  ]
}
